Columns and labels:
Assay type in all cases: functional
[1] = test system: Podosphaera fuliginea; assay: Fungicidal activity against Podosphaera fuliginea assessed as cucumber powdery mildew control under greenhouse at 7.8 ppm foliar application 24 hr after inoculation on upper surface of leaf at 23 +/- 2 degC by curative manner
[2] = test system: Botrytis cinerea; assay: Fungicidal activity against Botryotinia fuckeliana assessed as cucumber gray mold disease control at 7.8 ppm foliar application 24 hr after inoculation at 22 +/- 2 degC measured after 3 days by curative manner
[3] = test system: Botrytis cinerea; assay: Fungicidal activity against Botryotinia fuckeliana assessed as cucumber gray mold disease control at 2 ppm foliar application 24 hr after inoculation at 22 +/- 2 degC measured after 3 days by curative manner
[4] = test system: Pseudoperonospora cubensis; assay: Fungicidal activity against Pseudoperonospora cubensis assessed as cucumber downy mildew disease control at 2 ppm foliar application 24 hr after inoculation on upper surface of leaf by curative manner
[5] = test system: Pseudoperonospora cubensis; assay: Fungicidal activity against Pseudoperonospora cubensis assessed as cucumber downy mildew disease control at 2 ppm foliar application 24 hr before inoculation on upper surface of leaf by preventive manner
[6] = test system: Pseudoperonospora cubensis; assay: Fungicidal activity against Pseudoperonospora cubensis assessed as cucumber downy mildew disease control at 7.8 ppm foliar application 24 hr before inoculation on upper surface of leaf by preventive manner
[7] = test system: Pseudoperonospora cubensis; assay: Fungicidal activity against Pseudoperonospora cubensis assessed as cucumber downy mildew disease control at 125 ppm foliar application 24 hr after inoculation on upper surface of leaf by curative manner
[8] = test system: Pyricularia oryzae; assay: Fungicidal activity against Magnaporthe oryzae assessed as rice blast disease control at 10 ppm submerged application measured after 7 days
[9] = test system: Pyricularia oryzae; assay: Fungicidal activity against Magnaporthe oryzae assessed as rice blast disease control at 0.63 ppm submerged application measured after 7 days
[10] = test system: Pseudoperonospora cubensis; assay: Fungicidal activity against Pseudoperonospora cubensis assessed as cucumber downy mildew disease control at 125 ppm foliar application 24 hr before inoculation on upper surface of leaf by preventive manner
[11] = test system: Podosphaera fuliginea; assay: Fungicidal activity against Podosphaera fuliginea assessed as cucumber powdery mildew control under greenhouse at 125 ppm foliar application 24 hr after inoculation on upper surface of leaf at 23 +/- 2 degC by curative manner
[12] = test system: Thanatephorus cucumeris; assay: Fungicidal activity against Thanatephorus cucumeris assessed as rice sheath blight disease control at 2 ppm foliar application for 24 hr before inoculation at 26 +- 2 measured after 5 days by preventive manner
[13] = test system: Podosphaera fuliginea; assay: Fungicidal activity against Podosphaera fuliginea assessed as cucumber powdery mildew control under greenhouse at 2 ppm foliar application 24 hr before inoculation on upper surface of leaf at 23 +/- 2 degC by preventive manner
[14] = test system: Podosphaera fuliginea; assay: Fungicidal activity against Podosphaera fuliginea assessed as cucumber powdery mildew control under greenhouse at 31.3 ppm foliar application 24 hr after inoculation on upper surface of leaf at 23 +/- 2 degC by curative manner
[15] = test system: Pseudoperonospora cubensis; assay: Fungicidal activity against Pseudoperonospora cubensis assessed as cucumber downy mildew disease control at 7.8 ppm foliar application 24 hr after inoculation on upper surface of leaf by curative manner
[16] = test system: Pseudoperonospora cubensis; assay: Fungicidal activity against Pseudoperonospora cubensis assessed as cucumber downy mildew disease control at 31.3 ppm foliar application 24 hr before inoculation on upper surface of leaf by preventive manner
[17] = test system: Pyricularia oryzae; assay: Fungicidal activity against Magnaporthe oryzae assessed as rice blast disease control at 0.16 ppm submerged application measured after 7 days
[18] = test system: Thanatephorus cucumeris; assay: Fungicidal activity against Thanatephorus cucumeris assessed as rice sheath blight disease control at 31.3 ppm foliar application for 24 hr before inoculation at 26 +- 2 measured after 5 days by preventive manner
[19] = test system: Podosphaera fuliginea; assay: Fungicidal activity against Podosphaera fuliginea assessed as cucumber powdery mildew control under greenhouse at 7.8 ppm foliar application 24 hr before inoculation on upper surface of leaf at 23 +/- 2 degC by preventive manner
[20] = test system: Thanatephorus cucumeris; assay: Fungicidal activity against Thanatephorus cucumeris assessed as rice sheath blight disease control at 125 ppm foliar application for 24 hr before inoculation at 26 +- 2 measured after 5 days by preventive manner
[21] = test system: Thanatephorus cucumeris; assay: Fungicidal activity against Thanatephorus cucumeris assessed as rice sheath blight disease control at 7.8 ppm foliar application for 24 hr before inoculation at 26 +- 2 measured after 5 days by preventive manner
[22] = test system: Podosphaera fuliginea; assay: Fungicidal activity against Podosphaera fuliginea assessed as cucumber powdery mildew control under greenhouse at 125 ppm foliar application 24 hr before inoculation on upper surface of leaf at 23 +/- 2 degC by preventive manner
[23] = test system: Botrytis cinerea; assay: Fungicidal activity against Botryotinia fuckeliana assessed as cucumber gray mold disease control at 31.3 ppm foliar application 24 hr after inoculation at 22 +/- 2 degC measured after 3 days by curative manner
[24] = test system: Pseudoperonospora cubensis; assay: Fungicidal activity against Pseudoperonospora cubensis assessed as cucumber downy mildew disease control at 31.3 ppm foliar application 24 hr after inoculation on upper surface of leaf by curative manner
[25] = test system: Podosphaera fuliginea; assay: Fungicidal activity against Podosphaera fuliginea assessed as cucumber powdery mildew control under greenhouse at 31.3 ppm foliar application 24 hr before inoculation on upper surface of leaf at 23 +/- 2 degC by preventive manner
[26] = test system: Pyricularia oryzae; assay: Fungicidal activity against Magnaporthe oryzae assessed as rice blast disease control at 2.5 ppm submerged application measured after 7 days
[27] = test system: Podosphaera fuliginea; assay: Fungicidal activity against Podosphaera fuliginea assessed as cucumber powdery mildew control under greenhouse at 2 ppm foliar application 24 hr after inoculation on upper surface of leaf at 23 +/- 2 degC by curative manner
[28] = test system: Botrytis cinerea; assay: Fungicidal activity against Botryotinia fuckeliana assessed as cucumber gray mold disease control at 125 ppm foliar application 24 hr after inoculation at 22 +/- 2 degC measured after 3 days by curative manner
[29] = test system: Botrytis cinerea; assay: Fungicidal activity against Botryotinia fuckeliana assessed as cucumber gray mold disease control at 31.3 ppm foliar application 24 hr before inoculation at 22 +/- 2 degC measured after 3 days by preventive manner
[30] = test system: Botrytis cinerea; assay: Fungicidal activity against Botryotinia fuckeliana assessed as cucumber gray mold disease control at 2 ppm foliar application 24 hr before inoculation at 22 +/- 2 degC measured after 3 days by preventive manner
[31] = test system: Botrytis cinerea; assay: Fungicidal activity against Botryotinia fuckeliana assessed as cucumber gray mold disease control at 125 ppm foliar application 24 hr before inoculation at 22 +/- 2 degC measured after 3 days by preventive manner
[32] = test system: Botrytis cinerea; assay: Fungicidal activity against Botryotinia fuckeliana assessed as cucumber gray mold disease control at 7.8 ppm foliar application 24 hr before inoculation at 22 +/- 2 degC measured after 3 days by preventive manner

Compound | Activity [1] [%] | Activity [5] [%] | Activity [6] [%] | Activity [8] [%] | Activity [9] [%] | Activity [10] [%] | Activity [11] [%] | Activity [12] [%] | Activity [13] [%] | Activity [14] [%] | Activity [16] [%] | Activity [17] [%] | Activity [18] [%] | Activity [19] [%] | Activity [20] [%] | Activity [21] [%] | Activity [22] [%] | Activity [25] [%] | Activity [26] [%] | Activity [27] [%] | further results
CNC(=O)/C(=N/OC)c1ccccc1Oc1cccc(C)c1 | 50 | 70 | 70 | 50 | 50 | 70 | 50 | 70 | 70 | 50 | 70 | 50 | 70 | 70 | 70 | 70 | 70 | 70 | 50 | 50 | Activity [2]: 50%; Activity [3]: 50%; Activity [4]: 50%; Activity [7]: 50%; Activity [15]: 50%; Activity [23]: 50%; Activity [24]: 50%; Activity [28]: 50%
CNC(=O)/C(=N/OC)c1ccccc1Oc1ccc(C(C)(C)C)cc1 | 50 | <70 | <70 | 50 | 50 | <70 | 50 | 70 | 70 | 50 | <70 | 50 | 70 | 70 | 70 | 70 | 70 | 70 | 50 | 50 | Activity [2]: 50%; Activity [3]: 50%; Activity [4]: <50%; Activity [7]: <50%; Activity [15]: <50%; Activity [23]: 50%; Activity [24]: <50%; Activity [28]: 50%
CNC(=O)/C(=N/OC)c1ccccc1Oc1ccc(Cl)cc1 | 50 | 70 | 70 | 50 | 50 | 70 | 50 | 70 | 70 | 50 | 70 | 50 | 70 | 70 | 70 | 70 | 70 | 70 | 50 | 50 | Activity [2]: 50%; Activity [3]: 50%; Activity [4]: 50%; Activity [7]: 50%; Activity [15]: 50%; Activity [23]: 50%; Activity [24]: 50%; Activity [28]: 50%
CNC(=O)/C(=N/OC)c1ccccc1Oc1ccc(Br)cc1 | 50 | <70 | <70 | 50 | 50 | <70 | 50 | 70 | 70 | 50 | <70 | 50 | 70 | 70 | 70 | 70 | 70 | 70 | 50 | 50 | Activity [2]: 50%; Activity [3]: 50%; Activity [4]: <50%; Activity [7]: <50%; Activity [15]: <50%; Activity [23]: 50%; Activity [24]: <50%; Activity [28]: 50%
CNC(=O)/C(=N/OC)c1ccccc1Oc1ccc(I)cc1 | 50 | 70 | 70 | 50 | 50 | 70 | 50 | 70 | 70 | 50 | 70 | 50 | 70 | 70 | 70 | 70 | 70 | 70 | 50 | 50 | Activity [2]: 50%; Activity [3]: 50%; Activity [4]: 50%; Activity [7]: 50%; Activity [15]: 50%; Activity [23]: 50%; Activity [24]: 50%; Activity [28]: 50%
CNC(=O)/C(=N/OC)c1ccccc1Oc1ccc(OCc2ccccc2)cc1 | <50 | <70 | <70 | 50 | 50 | <70 | <50 | <70 | <70 | <50 | <70 | 50 | <70 | <70 | <70 | <70 | <70 | <70 | 50 | <50 | Activity [29]: <70%; Activity [30]: <70%; Activity [31]: <70%; Activity [32]: <70%
CNC(=O)/C(=N/OC)c1cc(C(F)(F)F)ccc1Oc1ccccc1 | – | <70 | <70 | – | – | <70 | – | <70 | <70 | – | <70 | – | <70 | <70 | <70 | <70 | <70 | <70 | – | – | Activity [29]: <70%; Activity [30]: <70%; Activity [31]: <70%; Activity [32]: <70%
CNC(=O)/C(=N/OC)c1cc([Si](C)(C)C)ccc1Oc1ccccc1 | – | <70 | <70 | – | – | <70 | – | <70 | <70 | – | <70 | – | <70 | <70 | <70 | <70 | <70 | <70 | – | – | Activity [29]: <70%; Activity [30]: <70%; Activity [31]: <70%; Activity [32]: <70%
CNC(=O)/C(=N/OC)c1cccc([N+](=O)[O-])c1Oc1ccccc1 | – | <70 | <70 | – | – | <70 | – | <70 | <70 | – | <70 | – | <70 | <70 | <70 | <70 | <70 | <70 | – | – | Activity [29]: <70%; Activity [30]: <70%; Activity [31]: <70%; Activity [32]: <70%

Reference: ChEMBL document CHEMBL3045600, “Synthesis and Fungicidal Activities of Phenoxyphenyl Alkoxyiminoacetamide Derivatives” (J Pestic Sci, 1998)
